Test results from patent US10829458B2 (Araxes Pharma LLC, priority 2015, dated 2020).

Biological target: T1, KRAS G12C 1-169, his-tagged protein, GDP-loaded (Homo sapiens, UniProt P01116, G12C)
T1 construct: KRAS G12C 1-169, his-tagged protein, GDP-loaded
Assay: Biochemical assay: covalent modification of KRAS G12C measured by mass spectrometry (RapidFire/TOF or Q-Exactive)
Settings: covalent binding to KRAS G12C
Procedure, shortened: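 Covalent adduct formation read by intact-mass spectrometry (TOF or Q Exactive Plus, charge envelopes deconvoluted into modified and unmodified species) after formic acid quench. Reactions contained 2 μM GDP-bound KRAS G12C 1-169 (his-tag) in Hepes/NaCl/MgCl2 buffer plus 10, 30 or 100 μM final compound, held 30 min, 2 h or 24 h at room temperature.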

Row | SMILES | Binding % (compounds of structure (III)) | Binding % (compounds of structure (I))
1 | C=CC(=O)N1C[C@@H](C)N(c2ncnc3c(F)c(-c4c(O)cccc4F)c(Cl)cc23)[C@@H](C)C1 (atropisomer, axis not shown) [III-36] | +++ (+++ indicates binding activity greater than 90%) | –
2 | C=CC(=O)N1CCN(c2nc(OC3CCN(CC(F)(F)F)CC3)nc3c(F)c(-c4c(O)cccc4F)c(Cl)cc23)CC1 [Example I-27, 1-(4-(6-chloro-8-fluoro-7-(2-fluoro-6-hydroxyphenyl)-2-(1-(2,2,2-trifluoroethyl)piperidin-4-yloxy)quinazolin-4-yl)piperazin-1-yl)prop-2-en-1-one] | – | +++ (+++ indicates binding activity greater than 90%)
3 | C=CC(=O)N1CCN(c2nc(N3CC(CN(C)C)C3)nc3c(F)c(-c4c(C)ccc5[nH]ncc45)c(Cl)cc23)CC1 [Example I-159, 1-(4-(6-chloro-2-(3-((dimethyl-amino)methyl)azetidin-1-yl)-8-fluoro-7-(5-methyl-1H-indazol-4-yl)quinazolin-4-yl)piperazin-1-yl) prop-2-en-1-one] | – | +++ (+++ indicates binding activity greater than 90%)
4 | C=CC(=O)N1CCN(c2nc(NC3CCCN(CC4CC4)C3)nc3c(F)c(-c4c(O)cccc4F)c(Cl)cc23)CC1 (stereo not shown) [Example I-134, 1-(4-(6-chloro-2-(1-(cyclopropyl-methyl)piperidin-3-ylamino)-8-fluoro-7-(2-fluoro-6-hydroxyphenyl)quinazolin-4-yl)piperazin-1-yl) prop-2-en-1-one] | – | +++ (+++ indicates binding activity greater than 90%)
5 | C=CC(=O)N1CCN(c2ncnc3c(F)c(-c4c(O)cccc4F)c(Cl)cc23)CC1C(F)(F)F (stereo not shown) [III-11, 1-(4-(6-chloro-8-fluoro-7-(2-fluoro-6-hydroxy-phenyl)quinazolin-4-yl)-2-(trifluoro-methyl)piperazin-1-yl)prop-2-en-1-one] | +++ (+++ indicates binding activity greater than 90%) | –
6 | C=CC(=O)N1CCN(c2nc(OCCc3ncccn3)nc3c(F)c(-c4c(C)ccc5[nH]ncc45)c(Cl)cc23)CC1 [Example I-139, 1-(4-(6-chloro-8-fluoro-7-(5-methyl-1H-indazol-4-yl)-2-(2-(pyrimidin-2-yl)ethoxy)quinazolin-4-yl)piperazin-1-yl) prop-2-en-1-one] | – | +++ (+++ indicates binding activity greater than 90%)
7 | C=CC(=O)N1CCN(c2nc(OC3CCN(C(C)C)CC3)nc3c(F)c(-c4c(C)ccc5[nH]ncc45)c(Cl)cc23)CC1 [Example I-193, 1-(4-(6-chloro-8-fluoro-2-((1-isopropyl-piperidin-4-yl)oxy)-7-(5-methyl-1H-indazol-4-yl)quinazolin-4-yl)piperazin-1-yl) prop-2-en-1-one] | – | +++ (+++ indicates binding activity greater than 90%)
8 | C=CC(=O)N1CCN(c2nc(N3CC(N4CCC(F)(F)CC4)C3)nc3c(F)c(-c4c(O)cccc4F)c(Cl)cc23)CC1 [Example I-23, 1-(4-(6-chloro-2-(3-(4,4-difluoro-piperidin-1-yl)azetidin-1-yl)-8-fluoro-7-(2-fluoro-6-hydroxyphenyl)quinazolin-4-yl)piperazin-1-yl) prop-2-en-1-one] | – | ++ (++ indicates binding activity from 50 to 90%)
9 | C=CC(=O)N1CCN(c2nc(OCc3cnc(C)nc3)nc3c(F)c(-c4c(O)cccc4F)c(Cl)cc23)CC1 [Example I-101, 1-(4-(6-chloro-8-fluoro-7-(2-fluoro-6-hydroxyphenyl)-2-((2-methyl-pyrimidin-5-yl)methoxy)quinazolin-4-yl)piperazin-1-yl) prop-2-en-1-one] | – | +++ (+++ indicates binding activity greater than 90%)
10 | C=CC(=O)N1CCN(c2nc(NCCN3CC(F)(F)C3)nc3c(F)c(-c4c(C)ccc5[nH]ncc45)c(Cl)cc23)CC1 [Example I-141, 1-(4-(6-chloro-2-(2-(3,3-difluoro-azetidin-1-yl)ethylamino)-8-fluoro-7-(5-methyl-1H-indazol-4-yl)quinazolin-4-yl)piperazin-1-yl) prop-2-en-1-one] | – | +++ (+++ indicates binding activity greater than 90%)
